Data: patent US11654198B2, “Application of combination of polyethylene glycol and local anesthetic in non-narcotic analgesia” (JENKEM TECHNOLOGY CO., LTD. (TIANJIN), priority 2016, dated 2023)

Experiments:
[1] = test system: SD rats; assay: Hot plate paw withdrawal time, rat sciatica model, intervertebral disc compression (SNL) (Example 32); type: in vivo
Text: Intervertebral disc compression (SNL): This model is a pathological form that simulates clinical disc herniation. The specific method is to remove the autogenous caudal intervertebral disc tissue (annulus fibrosus and nucleus pulposus) form the rats and place the caudal intervertebral disc tissue between the proximal nerve root of the L5 dorsal root ganglion and the lower vertebral body to directly compress the L5 nerve root, wherein damage to the L5 nerve root or dorsal root ganglion should be avoided during the operation. 3 to 15 days after the model is successful, rats develop significant hyperalgesia, so the administration time we chose is between 3 days and 15 days.
Qualified rats are randomly divided into 5 groups, 6 rats in each group, which are labeled as groups G1, G2, G3, G4 and G5, respectively. Administration by intramuscular injection around sciatic nerve is adopted, and the grouping information of the experimental animals is shown in Table 11.
(§1) Sensory block (hot plate paw withdrawal time): The sensory block of the rat is examined by a hot plate method, and the hot plate is heated to (56±1)° C., and one of the hind paws of the rat is placed on the hot plate, the other hind paw is in the laboratory room temperature condition, and the tested paw withdrawal time is observed and recorded. The average value of two to three times measured is recorded as a pain threshold. In order to avoid the damage of the experimental animal body, if the rat has no paw withdrawal in the hot plate experiment for more than 15 s, the paws should be removed from the hot plate, and the experimental result is recorded as 15 s. The time point for determining the withdrawal time of the hot plate is before administration, and 0.5 h, 1 h, 2 h, 4 h, 6 h, 8 h, 12 h, and 24 h after administration.

[2] = test system: SD rats; assay: Motor block four-level score, rat plantar incision model (Example 31); type: in vivo; set-up: key to motor function score: 1 = normal paw movement to 4 = complete loss of movement with gait defect; conditions: for motor function score: bupivacaine 8, conjugate 10/11/12 32/24/48 mg/kg
Procedure: (§2) After SD rats inhale anesthesia (isoflurane), an incision of about 1 cm in length from the proximal end of the pelma to the toe is made: after the skin and fascia are cut, the plantar muscle is picked up with an ophthalmic forceps and cut longitudinally (maintaining the starting and ending point and attachment of muscles); pressing is carried out for hemostasis, physiological saline and test drugs are injected into the muscles of animal's legs, and then the pain threshold detection is performed by the hot plate method. Within 24 hours after the model is successful, the rats develop significant hyperalgesia. Qualified rats are randomly divided into 5 groups, 6 rats in each group, which are labeled as groups G1, G2, G3, G4 and G5, respectively. The plantar subcutaneous injection method for administration is used, and the grouping information of the experimental animals is shown in Table 8.
Motor block (four-level score): The exercise condition of each group of rats is evaluated by the motor block four-level scoring method. The scoring criteria are: paws can be dorsiflexed, stretched, valgus and other normal exercises, scored by 1 point; paws can be dorsiflexed, bendable or after the adduction, although the paws can be stretched, the stretching ability is weakened, scored by 2 points; the paws can perform dorsiflexion, but no longer has the ability to stretch, scored by 3 points; the paws completely lose the ability of dorsiflexion, curling and stretching, and the rats produce a gait defect, scored by 4 points. The time point for measuring the motor block score is before administration, and 0.5 h, 1 h, 2 h, 4 h, 6 h, 8 h, 12 h, and 24 h after administration.

[3] = test system: SD rats; assay: Hot plate paw withdrawal time, rat plantar incision model (Example 31); type: in vivo
Procedure: as §2
as §1, with “determining the paw withdrawal time” for “determining the withdrawal time”

[4] = test system: SD rats; assay: Sensory block, hot plate paw withdrawal time, non-anesthetic analgesic effect of PEG-bupivacaine conjugate (Example 30); type: in vivo, rat; conditions: for hot plate paw withdrawal time: conjugate 10/11/12 at 32/24/48 mg/kg (as bupivacaine)
Procedure: Male Sprague-Dawley rats are used in the study, about 230-250 g when accepted, and acclimated for at least 7 days prior to the experiment. Two rats are raised in each cage and fed freely with feed and water. The environmental conditions of the breeding room are 23±2° C., and the relative humidity is 40% to 70%, alternating 12 hours of light and dark. […] The qualified rats are randomly divided into 4 groups, 4 rats in each group, which are labeled as groups G1, G2, G3, and G4, respectively. Administration by direct injection in the sciatic nerve is adopted, and with the rat's back facing up, the drug is injected around the right sciatic nerve trunk between the right hip and the right thigh.
as §1, with “the hot plate. The other hind” for “the hot plate, the other hind”, “s, the rat should be” for “s, the paws should be”, “determining the paw withdrawal time” for “determining the withdrawal time”, “8 h, 10 h, 12 h,” for “8 h, 12 h,”

[5] = 0 h (after surgery, before administration), bupivacaine 8, conjugate 10/11/12 32/24/48 mg/kg
[6] = bupivacaine 8, conjugate 10/11/12 32/24/48 mg/kg
[7] = conjugate 10/11/12 at 32/24/48 mg/kg

8-Arm-PEG-Bupivacaine, 20K [bupivacaine conjugate 11]
hot plate paw withdrawal time [1, 5]: 2.14 s | hot plate paw withdrawal time ([1]; 0.5 h after intramuscular injection around sciatic nerve, bupivacaine 8, conjugate 10/11/12 32/24/48 mg/kg): 7.43 s | hot plate paw withdrawal time ([1]; 1 h after intramuscular injection around sciatic nerve, bupivacaine 8, conjugate 10/11/12 32/24/48 mg/kg): 8.49 s | hot plate paw withdrawal time ([1]; 2 h after intramuscular injection around sciatic nerve, bupivacaine 8, conjugate 10/11/12 32/24/48 mg/kg): 9.10 s | hot plate paw withdrawal time ([1]; 4 h after intramuscular injection around sciatic nerve, bupivacaine 8, conjugate 10/11/12 32/24/48 mg/kg): 8.31 s | hot plate paw withdrawal time ([1]; 6 h after intramuscular injection around sciatic nerve, bupivacaine 8, conjugate 10/11/12 32/24/48 mg/kg): 7.10 s | hot plate paw withdrawal time ([1]; 8 h after intramuscular injection around sciatic nerve, bupivacaine 8, conjugate 10/11/12 32/24/48 mg/kg): 1.97 s | hot plate paw withdrawal time ([1]; 12 h after intramuscular injection around sciatic nerve, bupivacaine 8, conjugate 10/11/12 32/24/48 mg/kg): 2.71 s | hot plate paw withdrawal time ([1]; 24 h after intramuscular injection around sciatic nerve, bupivacaine 8, conjugate 10/11/12 32/24/48 mg/kg): 2.76 s | hot plate paw withdrawal time ([1]; before surgery, bupivacaine 8, conjugate 10/11/12 32/24/48 mg/kg (as bupivacaine)): 5.15 s | time after administration at which hot plate paw withdrawal time is significantly higher than vehicle group [1, 6]: ≤ 6 h | time the analgesic effect can reach [1, 7]: ≥ 6 h | motor function score ([2]; 0 h (before administration)): 1 ± 0 | motor function score ([2]; 0.5 h): 1 ± 0 | motor function score ([2]; 1 h): 1 ± 0 | motor function score ([2]; 2 h): 1 ± 0 | motor function score ([2]; 4 h): 1 ± 0 | motor function score ([2]; 6 h): 1 ± 0 | motor function score ([2]; 8 h): 1 ± 0 | motor function score ([2]; 12 h): 1 ± 0 | motor function score ([2]; 24 h): 1 ± 0 | effect on motor function of SD rats [2, 7]: does not affect the motor function | hot plate paw withdrawal time [3, 5]: 1.26 s | hot plate paw withdrawal time ([3]; 0.5 h after plantar subcutaneous injection, bupivacaine 8, conjugate 10/11/12 32/24/48 mg/kg): 7.43 s | hot plate paw withdrawal time ([3]; 1 h after plantar subcutaneous injection, bupivacaine 8, conjugate 10/11/12 32/24/48 mg/kg): 8.49 s | hot plate paw withdrawal time ([3]; 2 h after plantar subcutaneous injection, bupivacaine 8, conjugate 10/11/12 32/24/48 mg/kg): 9.10 s | hot plate paw withdrawal time ([3]; 4 h after plantar subcutaneous injection, bupivacaine 8, conjugate 10/11/12 32/24/48 mg/kg): 7.91 s | hot plate paw withdrawal time ([3]; 6 h after plantar subcutaneous injection, bupivacaine 8, conjugate 10/11/12 32/24/48 mg/kg): 8.65 s | hot plate paw withdrawal time ([3]; 8 h after plantar subcutaneous injection, bupivacaine 8, conjugate 10/11/12 32/24/48 mg/kg): 2.19 s | hot plate paw withdrawal time ([3]; 12 h after plantar subcutaneous injection, bupivacaine 8, conjugate 10/11/12 32/24/48 mg/kg): 1.89 s | hot plate paw withdrawal time ([3]; 24 h after plantar subcutaneous injection, bupivacaine 8, conjugate 10/11/12 32/24/48 mg/kg): 1.56 s | hot plate paw withdrawal time ([3]; base value before surgery, bupivacaine 8, conjugate 10/11/12 32/24/48 mg/kg (as bupivacaine)): 4.97 s | time after administration at which hot plate paw withdrawal time is significantly higher than vehicle group [3, 6]: ≤ 6 h | time the analgesic effect can reach [3, 7]: ≥ 6 h | hot plate paw withdrawal time ([4]; 0.5 h after direct injection around sciatic nerve): 9.60 s | hot plate paw withdrawal time ([4]; 2 h after direct injection around sciatic nerve): 5.02 s | hot plate paw withdrawal time ([4]; 4 h after direct injection around sciatic nerve): 6.65 s | hot plate paw withdrawal time ([4]; 6 h after direct injection around sciatic nerve): 6.44 s | hot plate paw withdrawal time ([4]; 8 h after direct injection around sciatic nerve): 3.69 s | hot plate paw withdrawal time ([4]; 10 h after direct injection around sciatic nerve): 3.24 s | hot plate paw withdrawal time ([4]; 12 h after direct injection around sciatic nerve): 2.62 s | hot plate paw withdrawal time ([4]; 24 h after direct injection around sciatic nerve): 3.77 s | time after administration at which hot plate paw withdrawal time is significantly higher than vehicle group ([4]; conjugate 10/11/12 at 32/24/48 mg/kg, direct injection): ≤ 6 h | time the analgesic effect could reach ([4]; conjugate 10 at 32 mg/kg, conjugate 11 at 24 mg/kg): 6 h | hot plate paw withdrawal time ([4]; l h after direct injection around sciatic nerve): 9.99 s
